The results in this text go back to patent publication US20230310428A1, “EGFR INHIBITOR AND PREPARATION METHOD AND USE THEREOF” (HONGYUN BIOTECH CO., LTD., priority 2020, published 2023).

pIC50: −log10 of the molar value.

Holding throughout (assay): Growth inhibitory activity of compounds on BaF3 cell lines stably transfected with kinase (MTS, 48 h)
What all share (assay type): cell-based

Test [1] has as its target T1, various mutants of kinase EGFR (BaF3 cell lines stably transfected with kinase) (Homo sapiens, UniProt P00533, C797S/L858R/T790M).
T1 construct: expressed in transfected cells; host or cells: BaF3
The settings on record: BaF3 cells stably transfected with EGFR L858R/T790M/C797S, read-out: IC50, growth inhibition, L858R/T790M/C797S. A digest of the protocol: (§1)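 OD at 490 nm after 1-4 h MTS/PES incubation gave growth inhibition relative to 0.1% DMSO negative and cell-free medium blank. Compounds: 8-point 1/3 dilution from 10 µM, 48 h, 37 °C. IC50 from inhibition curves; duplicates.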

Test [2] deals with T2, various mutants of kinase EGFR (BaF3 cell lines stably transfected with kinase) (Homo sapiens, UniProt P00533, T790M, form not given).
T2 construct: other: BaF3 cells stably transfected with EGFR Δ19Del/T790M; MTS, 48 h; other: BaF3 cell line stably transfected with EGFR Δ19Del/T790M; MTS, 48
The settings on record: BaF3 cells stably transfected with EGFR Δ19Del/T790M, read-out: IC50, growth inhibition, Δ19Del/T790M. Put shortly: as §1

For test [3], the target named is T3, various mutants of kinase EGFR (BaF3 cell lines stably transfected with kinase) (Homo sapiens, UniProt P00533, L858R/T790M).
T3 construct: expressed in transfected cells; host or cells: BaF3
Conditions: BaF3 cells stably transfected with EGFR L858R/T790M, read-out: IC50, growth inhibition, L858R/T790M. Put shortly:
as §1

For test [4], the target named is T4, various mutants of kinase EGFR (BaF3 cell lines stably transfected with kinase) (Homo sapiens, UniProt P00533, L858R).
T4 construct: expressed in transfected cells; host or cells: BaF3
The settings on record: BaF3 cells stably transfected with EGFR L858R, read-out: IC50, growth inhibition, L858R. A digest of the protocol:
as §1

For test [5], the target named is T5, various mutants of kinase EGFR (BaF3 cell lines stably transfected with kinase) (Homo sapiens, UniProt P00533).
T5 construct: other: BaF3 cells stably transfected with EGFR Δ19Del; MTS, 48 h; other: BaF3 cell line stably transfected with EGFR Δ19Del
Conditions: BaF3 cells stably transfected with EGFR Δ19Del, read-out: IC50, growth inhibition, Δ19Del. Put shortly: as §1

For test [6], the target named is T6, various mutants of kinase EGFR (BaF3 cell lines stably transfected with kinase) (Homo sapiens, UniProt P00533, T790M/C797S, form not given).
T6 construct: other: BaF3 cells stably transfected with EGFR Δ19Del/T790M/C797S; MTS, 48; other: BaF3 cell line stably transfected with EGFR Δ19Del/T790M/C7
The settings on record: BaF3 cells stably transfected with EGFR Δ19Del/T790M/C797S, read-out: IC50, growth inhibition, Δ19Del/T790M/C797S. Put shortly: as §1

T3 sequence (P00533 25-1210 T790M/L858R): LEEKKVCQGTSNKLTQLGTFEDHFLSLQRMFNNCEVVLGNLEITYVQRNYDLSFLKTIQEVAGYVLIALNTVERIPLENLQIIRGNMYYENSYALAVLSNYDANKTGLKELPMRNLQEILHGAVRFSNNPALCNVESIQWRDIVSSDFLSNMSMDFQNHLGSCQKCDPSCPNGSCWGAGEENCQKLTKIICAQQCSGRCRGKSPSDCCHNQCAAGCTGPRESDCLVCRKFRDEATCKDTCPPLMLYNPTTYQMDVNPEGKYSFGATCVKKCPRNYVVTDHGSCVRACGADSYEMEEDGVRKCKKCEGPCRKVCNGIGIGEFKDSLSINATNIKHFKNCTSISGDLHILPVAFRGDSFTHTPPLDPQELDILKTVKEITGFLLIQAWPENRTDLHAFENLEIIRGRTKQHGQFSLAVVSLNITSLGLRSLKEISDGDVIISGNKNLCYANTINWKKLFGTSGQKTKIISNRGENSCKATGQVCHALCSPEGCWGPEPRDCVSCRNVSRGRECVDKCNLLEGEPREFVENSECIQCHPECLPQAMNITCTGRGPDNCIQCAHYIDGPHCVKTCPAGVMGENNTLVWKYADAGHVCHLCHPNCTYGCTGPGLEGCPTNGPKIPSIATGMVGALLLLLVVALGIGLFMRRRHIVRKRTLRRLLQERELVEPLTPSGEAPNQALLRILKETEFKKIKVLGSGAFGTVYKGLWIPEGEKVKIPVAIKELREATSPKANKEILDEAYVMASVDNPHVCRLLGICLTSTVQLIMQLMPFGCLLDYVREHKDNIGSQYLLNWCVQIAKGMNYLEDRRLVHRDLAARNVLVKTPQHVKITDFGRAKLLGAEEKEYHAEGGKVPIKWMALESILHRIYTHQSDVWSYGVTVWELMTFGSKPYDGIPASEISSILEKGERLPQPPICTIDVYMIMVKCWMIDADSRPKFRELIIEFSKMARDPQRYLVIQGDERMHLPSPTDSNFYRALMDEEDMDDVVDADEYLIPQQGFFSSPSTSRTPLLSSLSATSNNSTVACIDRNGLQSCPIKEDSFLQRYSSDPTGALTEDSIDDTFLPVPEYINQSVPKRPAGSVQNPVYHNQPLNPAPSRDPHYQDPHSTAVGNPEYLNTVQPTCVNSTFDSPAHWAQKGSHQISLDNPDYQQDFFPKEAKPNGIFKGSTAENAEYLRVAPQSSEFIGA
T6 sequence (P00533 with tags, fused parts or gaps DEL746-750/T790M/C797S, form open): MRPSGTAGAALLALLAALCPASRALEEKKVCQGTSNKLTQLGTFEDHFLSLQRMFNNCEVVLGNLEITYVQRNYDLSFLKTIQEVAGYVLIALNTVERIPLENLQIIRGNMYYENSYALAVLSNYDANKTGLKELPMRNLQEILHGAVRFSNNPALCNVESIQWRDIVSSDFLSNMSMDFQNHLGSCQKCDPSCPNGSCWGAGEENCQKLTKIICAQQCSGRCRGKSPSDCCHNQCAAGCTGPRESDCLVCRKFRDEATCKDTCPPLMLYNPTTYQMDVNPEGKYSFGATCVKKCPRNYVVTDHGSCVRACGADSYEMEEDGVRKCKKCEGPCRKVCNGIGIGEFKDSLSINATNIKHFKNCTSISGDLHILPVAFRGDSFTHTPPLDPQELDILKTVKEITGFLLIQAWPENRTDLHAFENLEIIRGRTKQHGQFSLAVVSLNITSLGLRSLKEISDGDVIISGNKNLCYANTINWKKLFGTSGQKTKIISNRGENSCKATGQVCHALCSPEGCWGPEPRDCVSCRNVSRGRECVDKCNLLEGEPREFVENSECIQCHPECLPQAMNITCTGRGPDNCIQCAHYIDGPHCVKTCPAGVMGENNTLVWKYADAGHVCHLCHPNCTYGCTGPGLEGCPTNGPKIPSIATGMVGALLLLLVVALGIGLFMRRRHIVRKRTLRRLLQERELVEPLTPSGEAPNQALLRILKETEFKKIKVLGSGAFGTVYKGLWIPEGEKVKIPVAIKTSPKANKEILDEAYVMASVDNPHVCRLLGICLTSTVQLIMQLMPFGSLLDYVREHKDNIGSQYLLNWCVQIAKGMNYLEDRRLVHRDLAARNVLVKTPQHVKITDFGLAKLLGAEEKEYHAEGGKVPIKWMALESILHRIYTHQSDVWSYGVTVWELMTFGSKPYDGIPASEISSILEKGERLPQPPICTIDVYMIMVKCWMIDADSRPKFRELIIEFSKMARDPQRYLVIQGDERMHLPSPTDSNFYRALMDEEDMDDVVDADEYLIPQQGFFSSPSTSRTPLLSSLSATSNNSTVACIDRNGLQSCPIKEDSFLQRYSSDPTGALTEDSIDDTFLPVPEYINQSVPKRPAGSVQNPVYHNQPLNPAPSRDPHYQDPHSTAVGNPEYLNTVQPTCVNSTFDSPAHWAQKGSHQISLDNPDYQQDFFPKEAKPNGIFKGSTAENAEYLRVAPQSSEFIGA
T2 sequence (P00533 with tags, fused parts or gaps DEL746-750/T790M, form open): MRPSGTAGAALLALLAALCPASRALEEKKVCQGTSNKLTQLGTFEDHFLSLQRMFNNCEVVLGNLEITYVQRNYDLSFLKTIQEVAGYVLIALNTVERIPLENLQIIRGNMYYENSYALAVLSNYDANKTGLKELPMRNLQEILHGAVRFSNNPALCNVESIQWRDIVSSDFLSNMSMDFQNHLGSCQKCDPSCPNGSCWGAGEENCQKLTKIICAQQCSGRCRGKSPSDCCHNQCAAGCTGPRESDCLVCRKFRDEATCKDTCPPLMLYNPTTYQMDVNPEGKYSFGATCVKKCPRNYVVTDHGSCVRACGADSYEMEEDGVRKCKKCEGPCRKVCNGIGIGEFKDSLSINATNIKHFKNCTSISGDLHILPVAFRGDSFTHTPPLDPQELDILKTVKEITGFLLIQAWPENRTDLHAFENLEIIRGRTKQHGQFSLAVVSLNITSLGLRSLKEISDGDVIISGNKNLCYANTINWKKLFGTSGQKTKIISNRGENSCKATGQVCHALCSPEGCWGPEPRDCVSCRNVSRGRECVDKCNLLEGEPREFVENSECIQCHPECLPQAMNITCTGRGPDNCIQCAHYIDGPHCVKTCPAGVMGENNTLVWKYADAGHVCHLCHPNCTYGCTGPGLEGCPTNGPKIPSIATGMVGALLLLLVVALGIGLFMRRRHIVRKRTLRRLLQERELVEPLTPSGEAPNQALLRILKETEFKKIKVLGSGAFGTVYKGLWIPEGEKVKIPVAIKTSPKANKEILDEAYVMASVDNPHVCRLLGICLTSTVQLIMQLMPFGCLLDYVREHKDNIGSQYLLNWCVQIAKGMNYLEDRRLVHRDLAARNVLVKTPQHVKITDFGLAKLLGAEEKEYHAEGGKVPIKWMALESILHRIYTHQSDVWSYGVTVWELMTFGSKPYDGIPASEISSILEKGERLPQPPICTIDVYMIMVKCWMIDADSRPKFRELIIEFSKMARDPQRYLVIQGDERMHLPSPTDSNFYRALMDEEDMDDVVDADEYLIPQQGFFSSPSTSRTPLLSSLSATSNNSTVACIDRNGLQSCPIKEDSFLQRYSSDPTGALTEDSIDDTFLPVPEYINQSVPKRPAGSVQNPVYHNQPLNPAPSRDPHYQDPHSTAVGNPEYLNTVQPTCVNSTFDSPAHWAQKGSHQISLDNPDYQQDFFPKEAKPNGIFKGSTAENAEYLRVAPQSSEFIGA
T5 sequence (P00533 with tags, fused parts or gaps DEL746-750): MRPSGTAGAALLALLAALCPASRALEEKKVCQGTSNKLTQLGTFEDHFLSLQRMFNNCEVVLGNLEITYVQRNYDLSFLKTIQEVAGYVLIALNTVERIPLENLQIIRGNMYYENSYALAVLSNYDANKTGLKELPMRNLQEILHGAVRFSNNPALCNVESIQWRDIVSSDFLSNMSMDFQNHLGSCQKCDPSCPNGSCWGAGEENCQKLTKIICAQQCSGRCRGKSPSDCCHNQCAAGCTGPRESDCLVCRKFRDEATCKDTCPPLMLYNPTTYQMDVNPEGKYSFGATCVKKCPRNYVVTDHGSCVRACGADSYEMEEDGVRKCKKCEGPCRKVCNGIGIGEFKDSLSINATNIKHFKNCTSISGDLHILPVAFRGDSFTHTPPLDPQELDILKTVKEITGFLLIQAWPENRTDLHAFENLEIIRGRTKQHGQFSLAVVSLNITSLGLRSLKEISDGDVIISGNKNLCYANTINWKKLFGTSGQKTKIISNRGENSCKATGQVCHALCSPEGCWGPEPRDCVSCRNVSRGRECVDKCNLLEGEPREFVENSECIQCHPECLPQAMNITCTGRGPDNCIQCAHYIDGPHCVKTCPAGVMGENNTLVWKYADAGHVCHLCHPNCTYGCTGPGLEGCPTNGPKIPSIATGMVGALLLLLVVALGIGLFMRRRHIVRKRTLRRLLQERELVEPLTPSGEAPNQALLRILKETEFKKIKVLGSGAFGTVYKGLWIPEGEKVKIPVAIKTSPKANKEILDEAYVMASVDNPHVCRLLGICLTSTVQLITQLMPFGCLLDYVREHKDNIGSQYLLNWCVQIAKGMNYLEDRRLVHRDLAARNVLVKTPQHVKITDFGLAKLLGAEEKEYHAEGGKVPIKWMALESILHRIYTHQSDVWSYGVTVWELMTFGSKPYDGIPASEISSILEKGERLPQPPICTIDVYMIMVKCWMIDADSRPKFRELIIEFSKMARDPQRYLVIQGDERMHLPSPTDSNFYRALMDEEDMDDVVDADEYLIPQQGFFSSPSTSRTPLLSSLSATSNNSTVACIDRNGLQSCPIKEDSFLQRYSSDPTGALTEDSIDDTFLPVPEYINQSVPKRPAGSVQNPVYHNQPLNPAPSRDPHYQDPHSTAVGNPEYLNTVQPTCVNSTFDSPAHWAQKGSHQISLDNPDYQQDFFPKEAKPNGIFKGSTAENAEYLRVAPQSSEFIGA

`COc1cc(N2CCN(C)CC2)c(C)cc1Nc1ncc(Cl)c(Nc2ccc3nccnc3c2N(C)S(C)(=O)=O)n1` [Compound I-171]: the pIC50 in test [1] is at least 7.30; in test [2] it was at least 7.30; in test [3] it was at least 7.30; in test [4] it was at least 7.30; in test [5] it was 6.30 to 7.30; in test [6], at least 7.30.
For the compound `CCc1cc(Nc2ncc(Cl)c(Nc3ccc4nccnc4c3N(C)S(C)(=O)=O)n2)c(OC)cc1N1CCN(C)CC1` [Compound I-172], the pIC50 in test [1], in test [2], in test [3], in test [4], in test [5] and in test [6] was at least 7.30 in each case.
In the case of `COc1cc(N2CCC(N(C)C)C2)c(C)cc1Nc1ncc(Cl)c(Nc2ccc3nccnc3c2N(C)S(C)(=O)=O)n1` (stereo not drawn) [Compound I-173], the pIC50 in test [1], in test [2], in test [3], in test [4], in test [5] and in test [6] was at least 7.30 throughout.
Consider `CCc1cc(Nc2ncc(Cl)c(Nc3ccc4nccnc4c3N(C)S(C)(=O)=O)n2)c(OC)cc1N1CCC(N(C)C)C1` (stereo not drawn) [Compound I-174], for which the pIC50 in test [1], in test [2], in test [3], in test [4], in test [5] and in test [6] was at least 7.30 in each case.
As for `COc1nc(N2CCC(N3CCN(C)CC3)CC2)ccc1Nc1ncc(F)c(Nc2ccc3nccnc3c2N(C)S(C)(=O)=O)n1` [Compound I-175], the pIC50 in test [1] is 5.60 to 6.30; in test [2], 5.60 to 6.30; in test [3], 5.60 to 6.30; in test [4], 5.60 to 6.30; in test [5], 5.60 to 6.30; in test [6] it was 6.30 to 7.30.
Turning to `CCc1cc(Nc2ncc(F)c(Nc3ccc4nccnc4c3N(C)S(C)(=O)=O)n2)c(OC)nc1N1CCC(N2CCN(C)CC2)CC1` [Compound I-177], the pIC50 in test [1], in test [2], in test [3], in test [4], in test [5] and in test [6] was at least 7.30 throughout.
With `CN1CCN(C2CCN(c3ccc(Nc4ncc(F)c(Nc5ccc6nccnc6c5N(C)S(C)(=O)=O)n4)c(OC(F)(F)F)c3)CC2)CC1` [Compound I-178], the pIC50 in test [1] was 5.60 to 6.30; in test [2] it was 5.60 to 6.30; in test [3], 5.60 to 6.30; in test [4] it was 6.30 to 7.30; in test [5] it was 6.30 to 7.30; in test [6], 6.30 to 7.30.
Take `CCc1cc(Nc2ncc(F)c(Nc3ccc4nccnc4c3N(C)S(C)(=O)=O)n2)c(OC(F)(F)F)cc1N1CCC(N2CCN(C)CC2)CC1` [Compound I-179]: the pIC50 in test [1] was 6.30 to 7.30; in test [2] it was 6.30 to 7.30; in test [3], 6.30 to 7.30; in test [4], 6.30 to 7.30; in test [5] it was 6.30 to 7.30; in test [6], at least 7.30.
As to `C=Cc1cc(Nc2ncc(F)c(Nc3ccc4nccnc4c3N(C)S(C)(=O)=O)n2)c(OC(F)(F)F)cc1N1CCC(N2CCN(C)CC2)CC1` [Compound I-180], the pIC50 in test [1] was 6.30 to 7.30; in test [2] it was 6.30 to 7.30; in test [3], at least 7.30; in test [4], at least 7.30; in test [5], at least 7.30; in test [6] it was at least 7.30.
For the compound `COc1cc(N2CCC(N3CCN(C)CC3)CC2)c(CC2CC2)cc1Nc1ncc(F)c(Nc2ccc3nccnc3c2N(C)S(C)(=O)=O)n1` [Compound I-181], the pIC50 is 6.30 to 7.30 in test [1]; 6.30 to 7.30 in test [2]; at least 7.30 in test [3]; at least 7.30 in test [4]; at least 7.30 in test [5]; at least 7.30 in test [6].
Regarding `COc1cc(N2CCC(N3CCN(C)CC3)CC2)c(Cc2ccccc2)cc1Nc1ncc(F)c(Nc2ccc3nccnc3c2N(C)S(C)(=O)=O)n1` [Compound I-182], the pIC50 in test [1], in test [2], in test [3], in test [4], in test [5] and in test [6] was 5.60 to 6.30 each time.
For `COc1cc(N2CCC(N(C)C)CC2)c(C)cc1Nc1ncc(F)c(Nc2ccc3nccnc3c2N(C)S(C)(=O)=O)n1` [Compound I-183], the pIC50 in test [1] is at least 7.30; in test [2] it was 6.30 to 7.30; in test [3], at least 7.30; in test [4], at least 7.30; in test [5], at least 7.30; in test [6] it was at least 7.30.
As for `CCc1cc(Nc2ncc(F)c(Nc3ccc4nccnc4c3N(C)S(C)(=O)=O)n2)c(OC)cc1N1CCC(N(C)C)CC1` [Compound I-184], the pIC50 was at least 7.30 in test [1]; 6.30 to 7.30 in test [2]; at least 7.30 in test [3]; at least 7.30 in test [4]; at least 7.30 in test [5]; at least 7.30 in test [6].
`COc1cc(N2CCN(C)CC2)c(C)cc1Nc1ncc(F)c(Nc2ccc3nccnc3c2N(C)S(C)(=O)=O)n1` [Compound I-185]: the pIC50 in test [1] is 6.30 to 7.30; in test [2], 6.30 to 7.30; in test [3], 6.30 to 7.30; in test [4], at least 7.30; in test [5] it was 6.30 to 7.30; in test [6], at least 7.30.
For `CCc1cc(Nc2ncc(F)c(Nc3ccc4nccnc4c3N(C)S(C)(=O)=O)n2)c(OC)cc1N1CCN(C)CC1` [Compound I-186], the pIC50 is at least 7.30 in test [1]; 6.30 to 7.30 in test [2]; 6.30 to 7.30 in test [3]; at least 7.30 in test [4]; 6.30 to 7.30 in test [5]; at least 7.30 in test [6].
Turning to `COc1cc(N2CCC(N(C)C)C2)c(C)cc1Nc1ncc(F)c(Nc2ccc3nccnc3c2N(C)S(C)(=O)=O)n1` (stereo not drawn) [Compound I-187], the pIC50 in test [1] is 6.30 to 7.30; in test [2], 6.30 to 7.30; in test [3] it was 6.30 to 7.30; in test [4], 6.30 to 7.30; in test [5], at least 7.30; in test [6], 6.30 to 7.30.
Regarding `CCc1cc(Nc2ncc(F)c(Nc3ccc4nccnc4c3N(C)S(C)(=O)=O)n2)c(OC)cc1N1CCC(N(C)C)C1` (stereo not drawn) [Compound I-188], the pIC50 is 6.30 to 7.30 in test [1]; at least 7.30 in test [2]; 6.30 to 7.30 in test [3]; at least 7.30 in test [4]; 6.30 to 7.30 in test [5]; at least 7.30 in test [6].
For `CCc1cc(Nc2ncc([N+](=O)[O-])c(Nc3ccc4nccnc4c3N(C)S(C)(=O)=O)n2)c(OC)nc1N1CCC(N2CCN(C)CC2)CC1` [Compound I-190], the pIC50 is 6.30 to 7.30 in test [1]; at least 7.30 in test [2]; at least 7.30 in test [3]; 6.30 to 7.30 in test [4]; 6.30 to 7.30 in test [5]; at least 7.30 in test [6].
Regarding `COc1cc(N2CCC(N3CCN(C)CC3)CC2)c(CC2CC2)cc1Nc1ncc([N+](=O)[O-])c(Nc2ccc3nccnc3c2N(C)S(C)(=O)=O)n1` [Compound I-191], the pIC50 in test [1] is 6.30 to 7.30; in test [2] it was 6.30 to 7.30; in test [3] it was 6.30 to 7.30; in test [4], 6.30 to 7.30; in test [5], 6.30 to 7.30; in test [6], at least 7.30.
In the case of `COc1cc(N2CCC(N(C)C)CC2)c(C)cc1Nc1ncc([N+](=O)[O-])c(Nc2ccc3nccnc3c2N(C)S(C)(=O)=O)n1` [Compound I-192], the pIC50 in test [1] is at least 7.30; in test [2] it was at least 7.30; in test [3], at least 7.30; in test [4], 6.30 to 7.30; in test [5] it was at least 7.30; in test [6] it was at least 7.30.
For `CCc1cc(Nc2ncc([N+](=O)[O-])c(Nc3ccc4nccnc4c3N(C)S(C)(=O)=O)n2)c(OC)cc1N1CCC(N(C)C)CC1` [Compound I-193], the pIC50 in test [1], in test [2], in test [3], in test [4], in test [5] and in test [6] was at least 7.30 each time.
Turning to `COc1cc(N2CCN(C)CC2)c(C)cc1Nc1ncc([N+](=O)[O-])c(Nc2ccc3nccnc3c2N(C)S(C)(=O)=O)n1` [Compound I-194], the pIC50 in test [1] was 6.30 to 7.30; in test [2], 6.30 to 7.30; in test [3], 6.30 to 7.30; in test [4] it was 6.30 to 7.30; in test [5] it was 6.30 to 7.30; in test [6], at least 7.30.
